pEC50: −log10 of the molar value.
Columns and labels:
[1] = target: T1, human TREX2 (residues M44-A279) (Homo sapiens, UniProt Q9BQ50); assay: TREX2 Biochemical Assay (fluorescence assay, degradation of dsDNA substrate); settings: 2.5 nM TREX2, 60 nM dsDNA substrate, 25 minutes at room temperature; read-out: hTREX2 EC50
T1 construct: human TREX2 (residues M44-A279, expressed in E. coli); His-Tev (His tag with TEV protease site) (N); made in house; host or cells: E. coli
T1 sequence (Q9BQ50 44-279 isoform Q9BQ50-1): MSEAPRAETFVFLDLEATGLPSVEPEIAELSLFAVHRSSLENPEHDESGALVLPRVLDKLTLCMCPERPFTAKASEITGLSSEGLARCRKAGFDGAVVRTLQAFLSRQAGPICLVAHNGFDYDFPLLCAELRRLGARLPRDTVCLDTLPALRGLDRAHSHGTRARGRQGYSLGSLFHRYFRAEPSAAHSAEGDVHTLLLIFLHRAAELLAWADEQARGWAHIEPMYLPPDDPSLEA
Summary of the method: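 His-Tev-tagged human TREX2 (M44-A279, E. coli-expressed) at 2.5 nM final, with 60 nM TEX615/quencher-labelled dsDNA in pH 7.4 Tris buffer with MgCl2 and 1.0% DMSO, 10-point dose-response, 25 min at room temperature, then EDTA quench. Fluorescence read at 615 nm (ex 570 nm). IC50 from four-parameter fit against pre-quenched and no-inhibitor controls.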

full length human TREX1 = target: T2, full length human TREX1 (Homo sapiens, UniProt Q9NSU2); assay: TREX1 Biochemical Assay (fluorescence assay, degradation of dsDNA substrate); settings: 150 pM TREX1, 60 nM dsDNA substrate, 25 minutes at room temperature; read-out: hTREX1 EC50
T2 construct: N-terminally His-Tev tagged full length human TREX1; His-Tev (His tag with TEV protease site) (N); made in house; host or cells: E. coli
T2 sequence (Q9NSU2 1-314): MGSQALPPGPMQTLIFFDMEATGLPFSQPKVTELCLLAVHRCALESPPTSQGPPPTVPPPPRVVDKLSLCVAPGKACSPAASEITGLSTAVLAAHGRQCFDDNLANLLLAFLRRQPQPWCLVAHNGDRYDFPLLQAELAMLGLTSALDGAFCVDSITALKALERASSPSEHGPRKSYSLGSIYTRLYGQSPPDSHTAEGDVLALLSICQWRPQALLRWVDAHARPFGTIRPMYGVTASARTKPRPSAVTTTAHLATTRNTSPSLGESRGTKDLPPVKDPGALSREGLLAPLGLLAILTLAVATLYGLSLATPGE
Summary of the method: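 E. coli-expressed His-Tev-tagged full-length TREX1 (150 pM) with 60 nM quenched-fluorophore dsDNA in Tris pH 7.4, 150 mM NaCl, 100 mM MgCl2, 1% DMSO, 25 min room temperature, 10-point dose-response. EDTA stop; fluorescence 615 nm (ex 570 nm); IC50 from four-parameter fit against pre-quenched and no-inhibitor controls.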

Row | Structure (SMILES) | pEC50 [1] | pEC50 (full length human TREX1)
1 | NCC[C@H](c1cccc(Cl)c1Cl)N(Cc1cccnc1)C(=O)c1cc(F)cc(F)c1 [Compound 238] | 4.00 to 5.00 | < 5.00
2 | COc1cc(C(=O)N(Cc2cccnc2)Cc2cc(Cl)cc(Cl)c2)cc(Cl)c1O [Compound 67] | < 4.00 | < 5.00
3 | COc1cccc(C(=O)N(Cc2cccnc2)Cc2cc(Cl)cc(Cl)c2)c1 [Compound 36] | < 4.00 | < 5.00
4 | O=C(O)c1ncc(CN(Cc2ccccc2Cl)C(=O)c2cc(F)cc(F)c2)cn1 [Compound 207] | 4.00 to 5.00 | 6.00 to 7.00
5 | CC[C@@H](c1ccc2c(c1Cl)OCO2)N(Cc1ccc(C(=O)O)nc1)C(=O)c1cc(F)cc(F)c1 [Compound 230] | 5.00 to 6.00 | > 7.00
6 | O=C(c1ccccc1Oc1ccccc1)N(Cc1cccnc1)Cc1ccc(Cl)cc1Cl [Compound 44] | < 4.00 | < 5.00
7 | CC[C@@H](c1cccc(Cl)c1OC)N(Cc1cnc(C(=O)O)c(N)c1)C(=O)c1cc(F)cc(F)c1 [Compound 250] | 4.00 to 5.00 | > 7.00
8 | O=C(c1ccc(F)c(Br)c1)N(Cc1cccnc1)Cc1ccc(Cl)cc1Cl [Compound 12] | < 4.00 | 5.00 to 6.00
9 | O=C(c1cc(F)cc(F)c1)N(Cc1cccnc1)[C@H](c1cn[nH]c1)c1ccc(Cl)cc1Cl [Compound 220] | 4.00 to 5.00 | 6.00 to 7.00
10 | O=C(c1ccc2ccccc2c1)N(Cc1cccnc1)Cc1ccc(Cl)cc1Cl [Compound 28] | < 4.00 | < 5.00
11 | CC[C@H](c1ccc2c(c1Cl)OCO2)N(Cc1ccc(C(=O)O)nc1)C(=O)c1cc(F)cc(F)c1 [Compound 233] | 5.00 to 6.00 | > 7.00
12 | O=C(c1cccc(F)c1)N(Cc1ccc(CO)nc1)Cc1ccc(Cl)cc1Cl [Compound 145, N-(2,4-dichlorobenzyl)-3-fluoro-N-((6-(hydroxymethyl)pyridin-3-yl)methyl)benzamide] | 4.00 to 5.00 | 5.00 to 6.00
13 | C[C@H](c1cccnc1)N(Cc1ccc(Cl)cc1Cl)C(=O)c1cccc(F)c1 (single isomer, unassigned) [Compound 153] | < 4.00 | < 5.00
14 | O=C(/C=C/c1ccco1)N(Cc1cccnc1)Cc1ccc(Cl)cc1Cl [Compound 79] | < 4.00 | < 5.00
15 | O=C(O)c1ccc(CN(Cc2ccc3ncccc3c2Cl)C(=O)c2cc(F)cc(F)c2)cn1 [Compound 191] | 5.00 to 6.00 | > 7.00
16 | O=C(c1cc(F)cc(F)c1)N(Cc1cnc2c(=O)[nH]cnc2c1)Cc1ccccc1Cl [Compound 183] | 4.00 to 5.00 | 6.00 to 7.00
17 | C[C@H](c1cccc(Cl)c1Cl)N(Cc1ccc(C(=O)O)nc1)C(=O)c1cc(F)cc(F)c1 [Compound 173] | 4.00 to 5.00 | 6.00 to 7.00
18 | O=C(c1cccc(F)c1)N(Cc1cccnc1)Cc1c(F)cccc1Cl [Compound 130] | 4.00 to 5.00 | 5.00 to 6.00
19 | O=C(c1cccc(F)c1)N(Cc1cccnc1)Cc1ccccc1F [Compound 129] | < 4.00 | < 5.00
20 | O=C(c1ccc(CO)cc1)N(Cc1cccnc1)Cc1ccc(Cl)cc1Cl [Compound 83] | < 4.00 | < 5.00
21 | O=C(c1cc(F)cc(F)c1)N(Cc1ccc(-c2cc(C(F)(F)F)n[nH]2)nc1)Cc1ccccc1Cl [Compound 223] | < 4.00 | < 5.00
